Test results published in patent publication US20060079453A1, “Hla binding peptides and their uses” (priority 2002, published 2006).
No end group written: not given here.

What was measured:
Assay in all cases: biochemical
Type in all cases: binding
HLA-DR DRB1*0101 (DR1) = HLA-DR DRB1*0101 (DR1) (Homo sapiens, UniProt P01903+P01911, A100R/D57E/F55L/F60I/F76Y/I96L/L162R/M171V/P40L/Q125E/R42F/V115G/Y59C); conditions: DRB1 *0101
HLA-DR DRB1*0301 (DR3) = HLA-DR DRB1*0301 (DR3) (Homo sapiens, UniProt P01903+P01911, A100K/A102G/A103R/A169T/F55Y/I96L/K41T/L162R/M171V/P40S/Q125H/Q178H/Q39Y/R42S/S66N/T106N/T262R/W38E/Y61H)
Sequence of HLA-DR DRB1*0301 (DR3) (P01903 26-254 limits assumed, other chains not shown): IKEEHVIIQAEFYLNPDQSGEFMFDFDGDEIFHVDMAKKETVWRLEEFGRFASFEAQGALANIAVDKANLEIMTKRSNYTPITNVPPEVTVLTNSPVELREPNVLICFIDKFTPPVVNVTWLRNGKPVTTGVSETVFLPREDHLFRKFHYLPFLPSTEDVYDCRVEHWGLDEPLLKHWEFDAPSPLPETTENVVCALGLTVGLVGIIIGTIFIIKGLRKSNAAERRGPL

HLA-DR DRB1*0401 (DR4) = HLA-DR DRB1*0401 (DR4) (Homo sapiens, UniProt P01903+P01911, A100K/A169T/F76Y/I96L/K127E/L162R/M171V/N62H/P40V/Q125Y/R42H/S133A/S149N/S66Y/V115G/V209L/W38E); conditions: DRB1 *0401
HLA-DR DRB1*0701 (DR7) = HLA-DR DRB1*0701 (DR7) (Homo sapiens, UniProt P01903+P01911, A100R/A102G/A103Q/D57E/D86V/E43K/F76Y/K127E/L162R/M171V/P40G/Q125H/Q99D/R33Q/R42Y/R54Q/S133A/S66F/T210M/V115G/Y107V/Y59L/Y89S); conditions: DRB1 *0701
HLA-DR DRB1*0802 (DR8) = HLA-DR DRB1*0802 (DR8) (Homo sapiens, UniProt P01903+P01911, A100R/A103L/A169T/F76Y/H45Y/I96F/K41T/L162R/M171V/P40S/Q125H/Q178H/Q39Y/Q99D/R218S/R42G/S66Y/V115G/W38E)
HLA-DR DRB1*0901 (DR9) = HLA-DR DRB1*0901 (DR9) (Homo sapiens, UniProt P01903+P01911, A100R/A103E/D57H/D86V/F55Y/F60I/F76Y/I96F/K127E/L162R/M171V/P40D/Q125H/Q99R/R33Q/R42F/S133A/S66N/T210M/V115G/W38K/Y107V/Y59G/Y89S); conditions: DRB1 *0901
HLA-DR DRB1*1101 (DR11) = HLA-DR DRB1*1101 (DR11) (Homo sapiens, UniProt P01903+P01911, A100R/A169T/A87E/I96F/K41T/L162R/M171V/P40S/Q125H/Q178H/Q39Y/Q99D/R42S/S66Y/T262R/V115G/W38E); conditions: DRB1 *1101
Sequence of HLA-DR DRB1*1101 (DR11) (P01903 26-254 limits assumed, other chains not shown): as above

HLA-DR DRB1*1302 (DR13) = HLA-DR DRB1*1302 (DR13) (Homo sapiens, UniProt P01903+P01911, A100E/A169T/K41T/L162R/M171V/P40S/Q125H/Q178H/Q39Y/Q99D/R42S/S66N/T262R/V115G/W38E/Y61H); conditions: DRBI *1302
Sequence of HLA-DR DRB1*1302 (DR13) (P01903 26-254 limits assumed, other chains not shown): as above

HLA-DR DRB1*1501 (DR15) = HLA-DR DRB1*1501 (DR15) (Homo sapiens, UniProt P01903+P01911); conditions: DRBI *1501
HLA-DR DRB3*0101 (DR52) = HLA-DR DRB3*0101 (DR52) (Homo sapiens, UniProt P01903+P79483)
HLA-DR DRB4*0101 (DR53) = HLA-DR DRB4*0101 (DR53) (Homo sapiens, UniProt P01903+P13762, G164S); conditions: DRB4 *0101
HLA-DR DRB5*0101 (DR51) = HLA-DR DRB5*0101 (DR51) (Homo sapiens, UniProt P01903+Q30154); conditions: DRB5 *0101

| Molecule | IC50 (HLA-DR DRB1*0101 (DR1)) [nM] | IC50 (HLA-DR DRB1*0301 (DR3)) [nM] | IC50 (HLA-DR DRB1*0401 (DR4)) [nM] | IC50 (HLA-DR DRB1*0701 (DR7)) [nM] | IC50 (HLA-DR DRB1*0802 (DR8)) [nM] | IC50 (HLA-DR DRB1*0901 (DR9)) [nM] | IC50 (HLA-DR DRB1*1101 (DR11)) [nM] | IC50 (HLA-DR DRB1*1302 (DR13)) [nM] | IC50 (HLA-DR DRB1*1501 (DR15)) [nM] | IC50 (HLA-DR DRB3*0101 (DR52)) [nM] | IC50 (HLA-DR DRB4*0101 (DR53)) [nM] | IC50 (HLA-DR DRB5*0101 (DR51)) [nM] |
| --- | --- | --- | --- | --- | --- | --- | --- | --- | --- | --- | --- | --- |
| NGVLQGITSWGSEPC | 945 | 24900 | 560 | 485 | 5870 | 819 | 9720 | 775 | 258 | 8040 | 4490 | – |
| YDPLYCESVHNFTLP | 1600 | 16600 | – | 838 | 30900 | 643 | 30200 | > 35000 | 2140 | > 8830 | 6900 | 28800 |
| CC(C)C[C@H](NC(=O)[C@H](CCC(N)=O)NC(=O)[C@H](CC(=O)O)NC(=O)[C@H](CCC(=O)O)NC(=O)[C@H](CO)NC(=O)[C@H](CC(C)C)NC(=O)[C@@H]1CCCN1C(=O)[C@@H](NC(=O)[C@@H](N)[C@@H](C)O)C(C)C)C(=O)N[C@@H](CC(C)C)C(=O)N[C@@H](Cc1ccc(O)cc1)C(=O)N[C@@H](CC(C)C)C(=O)N1CCC[C@H]1C(=O)N[C@@H](Cc1ccccc1)C(=O)N[C@@H](CCCNC(=N)N)C(=O)O | 4010 | 332 | – | 11300 | 42200 | 37400 | 26500 | 5300 | > 2370 | 4320 | 872 | – |
| CC[C@H](C)[C@H](NC(=O)[C@@H]1CCCN1C(=O)[C@H](CC(N)=O)NC(=O)[C@@H](N)Cc1c[nH]c2ccccc12)C(=O)N[C@@H](CC(C)C)C(=O)N[C@@H](CC(C)C)C(=O)N[C@@H](Cc1c[nH]c2ccccc12)C(=O)N[C@@H](CCC(N)=O)C(=O)N1CCC[C@H]1C(=O)N[C@H](C(=O)N1CCC[C@H]1C(=O)N[C@H](C(=O)N[C@@H](Cc1c[nH]cn1)C(=O)N[C@H](C(=O)N[C@H](C(=O)O)C(C)C)[C@@H](C)O)C(C)C)[C@@H](C)CC | 208 | > 81800 | 695 | – | 115000 | 607 | 19600 | 2260 | 14 | > 8830 | 81 | ≥ 100000 |
| CSCC[C@H](NC(=O)[C@H](CC(C)C)NC(=O)[C@@H]1CCCN1C(=O)[C@@H](NC(=O)[C@@H](N)CS)[C@@H](C)O)C(=O)N[C@@H](Cc1ccc(O)cc1)C(=O)N[C@@H](CO)C(=O)N[C@@H](CC(C)C)C(=O)N[C@H](C(=O)N[C@@H](Cc1c[nH]cn1)C(=O)N[C@@H](CC(N)=O)C(=O)N[C@@H](CC(C)C)C(=O)N[C@H](C(=O)N[C@@H](CCCCN)C(=O)N[C@@H](CCC(=O)O)C(=O)O)[C@@H](C)O)C(C)C | 93 | 19400 | – | 140 | 223 | 249 | 590 | 260 | 426 | 18300 | 58 | 36 |
| EVFFQRLGIASGRAR | 28 | > 75000 | – | 5310 | 6.3 | 2980 | 31 | 17500 | 4560 | > 15000 | 51 | 7.9 |
| CC(C)C[C@H](NC(=O)CNC(=O)[C@H](Cc1ccccc1)NC(=O)[C@H](CCC(=O)O)NC(=O)[C@H](CCCCN)NC(=O)[C@@H](N)Cc1c[nH]c2ccccc12)C(=O)N[C@@H](CC(=O)O)C(=O)N[C@@H](CO)C(=O)N[C@H](C(=O)N[C@@H](CCC(=O)O)C(=O)N[C@@H](CC(C)C)C(=O)N[C@@H](C)C(=O)N[C@@H](Cc1c[nH]cn1)C(=O)N[C@@H](Cc1ccc(O)cc1)C(=O)N[C@@H](CC(=O)O)C(=O)O)C(C)C | 1140 | 85 | 96 | – | 20000 | 7050 | 4930 | 8410 | 22800 | 829 | 5920 | 89400 |
| CC(C)C[C@H](NC(=O)[C@H](CO)NC(=O)[C@H](CC(C)C)NC(=O)[C@H](CO)NC(=O)[C@H](C)NC(=O)[C@H](C)NC(=O)[C@H](CCCNC(=N)N)NC(=O)[C@H](C)NC(=O)[C@H](CC(C)C)NC(=O)[C@H](CC(C)C)NC(=O)[C@H](CC(C)C)NC(=O)[C@@H]1CCCN1C(=O)[C@H](C)N)C(=O)NCC(=O)N[C@@H](Cc1ccccc1)C(=O)O | 8.4 | 56300 | – | 59 | 76 | 124 | 322 | 12 | 91 | 13400 | 59 | – |
| CC[C@H](C)[C@H](N)C(=O)N[C@@H](CCCCN)C(=O)N[C@@H](CCCCN)C(=O)N[C@@H](Cc1ccccc1)C(=O)N[C@@H](CC(C)C)C(=O)N[C@@H](Cc1ccc(O)cc1)C(=O)N[C@@H](CC(N)=O)C(=O)N[C@@H](Cc1ccccc1)C(=O)N[C@H](C(=O)N[C@@H](CCC(N)=O)C(=O)N[C@H](C(=O)N1CCC[C@H]1C(=O)N[C@@H](Cc1c[nH]cn1)C(=O)N[C@@H](CC(C)C)C(=O)N[C@@H](C)C(=O)O)[C@@H](C)CC)[C@@H](C)O | 449 | 8080 | 43 | 29 | 512 | 160 | 137 | 27 | 305 | 477 | 96 | – |
| GVILYSDPADYFAPG | 1570 | 17 | 7510 | 7850 | 106000 | 2470 | > 18900 | 39 | 965 | 8.8 | 64 | – |
